Assay results reported in ChEMBL document CHEMBL1201862, “PubChem BioAssay data set” (2004).
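Cells were grown in 96-well plates and exposed to each compound for 48 hours at five concentrations; endpoints were interpolated linearly between bracketing concentrations, or set to the highest concentration if not reached. GI50 is the concentration that inhibits growth by half.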 Active and inactive are the calls of the source. No stated cut-off is given here; in the data, active = GI50 up to about 1.1 µM and inactive = higher.

Legend:
Experiment in all cases: NCI tumour cell line growth inhibition, 48 h
[1] = tested on: OVCAR-5
[2] = tested on: BT-549
[3] = tested on: MCF7
[4] = tested on: UO-31
[5] = tested on: IGROV-1
[6] = tested on: LOX IMVI
[7] = tested on: SN12C
[8] = tested on: HCT-116
[9] = tested on: RXF 393
[10] = tested on: CCRF-CEM
[11] = tested on: SK-MEL-2
[12] = tested on: Malme-3M
[13] = tested on: ACHN
[14] = tested on: SK-MEL-28
[15] = tested on: CAKI-1
[16] = tested on: MDA-MB-435
[17] = tested on: NCI-H23
[18] = tested on: OVCAR-8
[19] = tested on: SNB-75
[20] = tested on: HCC 2998

Measured: GI50

NCCNS(=O)(=O)c1ccc(N)cc1
inactive: [1] > 100 µM | [2] > 100 µM | [3] > 100 µM | [4] > 100 µM | [5] > 100 µM | [6] > 100 µM | [7] > 100 µM | [8] > 100 µM | [9] > 100 µM | [10] 32.8 µM | [11] > 100 µM | [12] > 100 µM | [13] > 100 µM | [14] > 100 µM | [15] > 100 µM | [16] > 100 µM | [17] > 100 µM | [18] > 100 µM | [19] > 100 µM

S=C1N=C(Cl)/C(=C\c2ccco2)N1
inactive: [1] > 100 µM | [2] > 100 µM | [3] > 100 µM | [4] > 100 µM | [5] > 100 µM | [6] > 100 µM | [7] > 100 µM | [8] > 100 µM | [9] > 100 µM | [10] > 100 µM | [11] > 100 µM | [12] > 100 µM | [13] > 100 µM | [14] > 100 µM | [15] > 100 µM | [16] > 100 µM | [17] > 100 µM | [18] > 100 µM | [19] > 74.6 µM

O=c1[nH]c(=O)n(C2CC(O)C(CO)O2)cc1OCCc1ccccc1 (configuration not stated)
inactive: [1] > 100 µM | [2] > 100 µM | [3] > 100 µM | [4] > 100 µM | [5] > 100 µM | [6] > 100 µM | [7] > 100 µM | [8] > 100 µM | [9] > 100 µM | [10] > 100 µM | [12] > 100 µM | [13] > 100 µM | [14] > 100 µM | [15] > 100 µM | [16] > 100 µM | [17] > 100 µM | [18] > 100 µM | [19] > 100 µM

CCN=C=NCCCN(C)C
inactive: [1] > 100 µM | [2] > 100 µM | [3] > 100 µM | [4] > 100 µM | [5] > 100 µM | [6] > 100 µM | [7] > 100 µM | [8] > 100 µM | [9] > 100 µM | [10] > 100 µM | [11] > 100 µM | [12] > 100 µM | [13] > 100 µM | [14] > 100 µM | [15] > 100 µM | [16] > 100 µM | [17] > 100 µM | [18] > 100 µM | [19] > 100 µM

CO/C(N)=C(C#N)/N=C/c1ccc2ccccc2c1
inactive: [2] 18.5 µM | [4] 58.2 µM | [5] 43.6 µM | [6] 33.2 µM | [7] > 100 µM | [8] 76.2 µM | [9] > 100 µM | [10] 24.8 µM | [11] 31.1 µM | [12] > 100 µM | [13] 15.9 µM | [14] > 100 µM | [15] 39.1 µM | [16] 7.1 µM | [17] > 100 µM | [18] 72.3 µM | [19] 78.9 µM

CC(C)Oc1c(C2(c3ccccc3)SCCCS2)c(=O)c1=O
inactive: [1] > 100 µM | [2] > 100 µM | [3] > 100 µM | [4] > 100 µM | [5] > 100 µM | [6] > 100 µM | [7] > 100 µM | [8] > 100 µM | [9] > 100 µM | [10] 45.6 µM | [11] > 100 µM | [13] > 100 µM | [14] > 100 µM | [15] > 100 µM | [16] > 100 µM | [17] > 100 µM | [18] > 100 µM | [19] > 100 µM

Cc1ccc(S(=O)(=O)OC2CN3CCC2CC3)cc1 (configuration not stated)
inactive: [1] > 100 µM | [2] > 100 µM | [3] > 100 µM | [4] > 100 µM | [5] > 100 µM | [6] > 100 µM | [7] > 100 µM | [8] > 100 µM | [9] > 100 µM | [10] 15.5 µM | [11] > 100 µM | [12] > 100 µM | [13] > 100 µM | [14] > 100 µM | [15] > 100 µM | [16] > 100 µM | [17] > 100 µM | [18] > 100 µM | [19] > 100 µM

O=c1/c(=C/c2ccc([N+](=O)[O-])o2)sc2n1[C@@H](c1ccc(Cl)cc1)C=C(c1cc(F)c(Cl)cc1Cl)N=2
inactive: [1] 16.3 µM | [2] 15.1 µM | [3] 13.3 µM | [4] 14.7 µM | [5] 15.8 µM | [6] 16 µM | [7] 5.5 µM | [8] 3.56 µM | [9] 13.2 µM | [10] 4.83 µM | [11] 5.04 µM | [12] 17.9 µM | [13] 16.3 µM | [14] 24.2 µM | [15] 28.7 µM | [16] 16.1 µM | [17] 15.3 µM | [18] 4.16 µM | [19] 29.2 µM

CN(C)CCNc1ncnc2nc(-c3ccccc3)c(-c3ccccc3)nc12
inactive: [1] > 100 µM | [2] > 100 µM | [3] 57.5 µM | [4] > 100 µM | [5] > 100 µM | [6] > 100 µM | [7] > 100 µM | [8] > 100 µM | [9] > 100 µM | [10] > 100 µM | [11] > 100 µM | [12] > 100 µM | [14] > 100 µM | [15] > 100 µM | [16] > 100 µM | [17] > 100 µM | [18] > 100 µM | [19] 87.7 µM

O=c1cc(NNc2cccc(F)c2)[nH]c(=O)[nH]1
inactive: [1] > 100 µM | [2] > 100 µM | [4] 29.4 µM | [20] 95.9 µM | [5] 19.8 µM | [6] 18 µM | [7] > 100 µM | [8] 17.3 µM | [9] 20.5 µM | [10] 22.4 µM | [11] 40.5 µM | [12] 19.4 µM | [13] 35.6 µM | [14] > 100 µM | [15] 16.4 µM | [17] > 100 µM | [19] > 100 µM

CN(C)c1ccc(C(C#N)N2CCCN(C(C#N)c3ccc(N(C)C)cc3)C2c2ccc(N(C)C)cc2)cc1 (configuration not stated)
inactive: [1] > 100 µM | [2] > 100 µM | [3] > 100 µM | [4] > 100 µM | [5] > 100 µM | [6] > 100 µM | [7] > 100 µM | [8] > 100 µM | [9] > 100 µM | [10] > 100 µM | [11] > 100 µM | [12] > 100 µM | [13] > 100 µM | [14] > 100 µM | [15] > 100 µM | [16] > 100 µM | [17] > 100 µM | [18] > 100 µM | [19] > 100 µM
